# Results as given in patent US4493837A, “Theobromine derivatives” (Eisai Co., Ltd., priority 1979, dated 1985).
# Key:
# [1] = tested on: phenylquinone-induced writhing in mice; assay: Analgesic action: anti-writhing activity in mice (phenylquinone); type: in vivo; conditions: 4 mice
# Method: The analgesic action of the compounds of the present invention was examined by the following experiment, using the writhing method disclosed in E. Siegmund et al; Proc. Soc. Exp. Biol. & Med., Vol. 95, 729 (1957).
# Thirty minutes after subcutaneous injection of the compounds of the present invention, 2 mg/kg of phenylquinone was injected intraperitoneally to the mice. And 5 minutes later, the total number of writhes was counted for 4 minutes. Four mice were used for each dose level.
# [2] = tested on: fighting behavior in mice; assay: Inhibition of the fighting behavior in mice; type: in vivo; conditions: for No. of fighting episodes: one hour after administration, 10 experiments
# Text: The anti-fighting action was examined in the following experiment, using the method disclosed in Ralph E. Tedeshi et al, Journal of Pharmacology and Experimental Therapeutics, Vol. 125, 28-34 (1959).
# A pair of mice was placed in a plastic cage (16×10×18 cm) with the grid floor and applied electrical shocks (3 mA, 5 Hz, 50 msec.) during a 3-minutes period to their feet to induce the fighting behavior between the mice.
# In this experiment, each sample (the compounds of the present invention, and chlorpromazine and diazepam as control medicines) was prepared in a form of a 5% arabic gum suspension and was orally administered to the mice. One hour after oral administration, the fighting behavior was observed. A 5% arabic gum solution was administered to the control group. Ten pairs of mice were used for each dose level.
# [3] = tested on: grooming behavior in mice; assay: Inhibition of grooming behavior in mice; type: in vivo; conditions: for Number of grooming responses: 20-minutes count, 10 mice
# Method: The grooming behavior-inhibiting action of the compounds of the present invention was examined by the following experiments, using the method disclosed in O. Rohte; Psychopharmacologia, Vol. 14, 18-22 (1969).
# In this experiment, each sample (the compounds of the present invention, and chlorpromazine and diazepam as control medicines) was prepared in a form of 5% arabic gum suspension of 0.1 ml/10 g body weight of the animal.
# Forty minutes after oral administration of each sample, the oily ink was painted on each mouse. And 10 minutes later, the number of grooming responses was counted for a 20-minutes period. A 5% arabic gum solution alone was administered to the control group.
# [4] = tested on: femoral artery blood flow; assay: Blood flow-increasing action (average femoral artery blood flow after intraarterial injection, relative to papaverine); type: in vivo, mongrel dogs; conditions: anesthetized dogs, dose 0.03, 0.003 or 0.0003 mg/kg, papaverine 0.03 mg/kg = 1.00
# Method: The blood flow at a femoral artery is measured by each of four male and female mongrel dogs weighing from 10 to 14 kg. That is, each subject is anesthetized by injecting intravenously 30 mg/kg of pentobarbital and one side femoral artery is exposed. A probe (2.5 mm diameter) of a magnetic blood flow meter (Model MF-26, a product of Nihon-Koden K.K.) is fitted to this artery and a catheter is inserted into and fixed to a side branch of this femoral artery. Intraarterial injection of 0.1 ml of the sample is then made and the average blood flow is measured. The dose of the sample is 0.03 mg/kg. When the blood flow-increasing action is strong, the dose is made 0.003 mg/kg and when the blood flow-increasing action is even stronger, it is made 0.0003 mg/kg in order to conduct the experiments. […] The numerical values in Table 1 represent the relative values of the compounds of this invention when the height of the blood flow-increase curve obtained by administration of 0.03 mg/kg papaverine is arbitrarily assigned the value 1.00. In other words, these values represent the ratio of the efficacy of the compounds of this invention relative to the activity of papaverine, with the latter being assigned the value 1.
smiles,measurement,setting,value
Cn1cnc2c1c(=O)n(CCCCCCN1CCN(c3ccccc3Cl)CC1)c(=O)n2C,% Inhibition (writhing),[1]; 0.25 mg/kg s.c.,10%
same,% Inhibition (writhing),[1]; 0.5 mg/kg s.c.,70%
same,% Inhibition (writhing),[1]; 1.0 mg/kg s.c.,80%
same,% Inhibition (writhing),[1]; 2.5 mg/kg s.c.,90%
same,% Inhibition (writhing),[1]; 5.0 mg/kg s.c.,100%
"CN1C(=O)CN=C(c2ccccc2)c2cc(Cl)ccc21 [diazepam, reference compound]",% Inhibition (fighting episodes),[2]; 0.625 mg/kg P.O.,29%
same,No. of fighting episodes,[2]; 0.625 mg/kg P.O.,4.0 ± 1.0
same,% Inhibition (fighting episodes),[2]; 1.25 mg/kg P.O.,63%
same,No. of fighting episodes,[2]; 1.25 mg/kg P.O.,2.1 ± 0.9
same,% Inhibition (grooming responses),[3]; 0.625 mg/kg P.O.,53%
same,Number of grooming responses,[3]; 0.625 mg/kg P.O.,14.3 ± 4.2
same,% Inhibition (grooming responses),[3]; 2.5 mg/kg P.O.,68%
same,Number of grooming responses,[3]; 2.5 mg/kg P.O.,9.5 ± 5.2
same,% Inhibition (grooming responses),[3]; 10 mg/kg P.O.,75%
same,Number of grooming responses,[3]; 10 mg/kg P.O.,7.6 ± 3.2
Cc1cccc(C)c1N1CCN(CCCCn2c(=O)c3c(ncn3C)n(C)c2=O)CC1,% Inhibition (writhing),[1]; 2.5 mg/kg s.c.,0%
same,% Inhibition (writhing),[1]; 5.0 mg/kg s.c.,53%
same,% Inhibition (writhing),[1]; 10.0 mg/kg s.c.,77%
same,% Inhibition (writhing),[1]; 25.0 mg/kg s.c.,85%
COc1ccccc1N1CCN(CCn2c(=O)c3c(ncn3C)n(C)c2=O)CC1,Specific activity (blood flow increase relative to papaverine = 1),[4],95
COc1ccccc1N1CCN(CCCCCCn2c(=O)c3c(ncn3C)n(C)c2=O)CC1,Specific activity (blood flow increase relative to papaverine = 1),[4],404
"COc1ccc(Cc2nccc3cc(OC)c(OC)cc23)cc1OC [Papaverine, reference compound]",Specific activity (blood flow increase relative to papaverine = 1),[4],1
COc1ccccc1N1CCN(CCCCn2c(=O)c3c(ncn3C)n(C)c2=O)CC1 [drawing 20],% Inhibition (fighting episodes),[2]; 0.625 mg/kg P.O.,41%
same,No. of fighting episodes,[2]; 0.625 mg/kg P.O.,3.3 ± 0.7
same,% Inhibition (fighting episodes),[2]; 2.5 mg/kg P.O.,71%
same,No. of fighting episodes,[2]; 2.5 mg/kg P.O.,1.6
Cn1cnc2c1c(=O)n(CCCCN1CCN(c3cccc(C(F)(F)F)c3)CC1)c(=O)n2C [drawing 19],% Inhibition (fighting episodes),[2]; 0.625 mg/kg P.O.,25%
same,No. of fighting episodes,[2]; 0.625 mg/kg P.O.,4.2 ± 0.7
same,% Inhibition (fighting episodes),[2]; 2.5 mg/kg P.O.,81%
same,No. of fighting episodes,[2]; 2.5 mg/kg P.O.,1.0
COc1ccccc1N1CCN(CCCn2c(=O)c3c(ncn3C)n(C)c2=O)CC1,Specific activity (blood flow increase relative to papaverine = 1),[4],143
Cn1cnc2c1c(=O)n(CCCCCN1CCN(c3ccccc3)CC1)c(=O)n2C,Specific activity (blood flow increase relative to papaverine = 1),[4],247
Cn1cnc2c1c(=O)n(CCCCCN1CCN(c3ccccc3Cl)CC1)c(=O)n2C,% Inhibition (writhing),[1]; 1.0 mg/kg s.c.,0%
same,% Inhibition (writhing),[1]; 2.5 mg/kg s.c.,56%
same,% Inhibition (writhing),[1]; 5.0 mg/kg s.c.,87%
same,% Inhibition (writhing),[1]; 10.0 mg/kg s.c.,100%
"CN(C)CCCN1c2ccccc2Sc2ccc(Cl)cc21 [chlorpromazine, reference compound]",% Inhibition (fighting episodes),[2]; 0.625 mg/kg P.O.,30%
same,No. of fighting episodes,[2]; 0.625 mg/kg P.O.,3.9 ± 0.8
same,% Inhibition (fighting episodes),[2]; 2.5 mg/kg P.O.,45%
same,No. of fighting episodes,[2]; 2.5 mg/kg P.O.,3.1 ± 1.0
same,% Inhibition (grooming responses),[3]; 0.625 mg/kg P.O.,30%
same,Number of grooming responses,[3]; 0.625 mg/kg P.O.,21.4 ± 4.3
same,% Inhibition (grooming responses),[3]; 2.5 mg/kg P.O.,91%
same,Number of grooming responses,[3]; 2.5 mg/kg P.O.,2.9 ± 2.9
same,% Inhibition (grooming responses),[3]; 10 mg/kg P.O.,61%
same,Number of grooming responses,[3]; 10 mg/kg P.O.,5.8 ± 5.8
same,% Inhibition (grooming responses),[3]; 40 mg/kg P.O.,80%
same,Number of grooming responses,[3]; 40 mg/kg P.O.,5.9 ± 5.9
COc1ccccc1N1CCN(CCCCn2c(=O)c3c(ncn3C)n(C)c2=O)CC1 [drawing 18],% Inhibition (grooming responses),[3]; 0.625 mg/kg P.O.,23%
same,Number of grooming responses,[3]; 0.625 mg/kg P.O.,23.4 ± 6.1
same,% Inhibition (grooming responses),[3]; 2.5 mg/kg P.O.,49%
same,Number of grooming responses,[3]; 2.5 mg/kg P.O.,15.6 ± 4.5
same,% Inhibition (grooming responses),[3]; 10 mg/kg P.O.,68%
same,Number of grooming responses,[3]; 10 mg/kg P.O.,9.5 ± 4.1
same,% Inhibition (grooming responses),[3]; 40 mg/kg P.O.,100%
same,Number of grooming responses,[3]; 40 mg/kg P.O.,0
Cn1cnc2c1c(=O)n(CCCCN1CCN(c3cccc(C(F)(F)F)c3)CC1)c(=O)n2C [drawing 17],% Inhibition (grooming responses),[3]; 0.625 mg/kg P.O.,49%
same,Number of grooming responses,[3]; 0.625 mg/kg P.O.,15.5 ± 5.8
same,% Inhibition (grooming responses),[3]; 2.5 mg/kg P.O.,46%
same,Number of grooming responses,[3]; 2.5 mg/kg P.O.,16.5 ± 5.9
same,% Inhibition (grooming responses),[3]; 10 mg/kg P.O.,95%
same,Number of grooming responses,[3]; 10 mg/kg P.O.,1.6 ± 1.6
same,% Inhibition (grooming responses),[3]; 40 mg/kg P.O.,100%
same,Number of grooming responses,[3]; 40 mg/kg P.O.,0
